From patent publication US10925921B2, “Fermented Pennisetum extract” (Sagittarius Life Science Corp., priority 2016, dated 2021)

Legend:
Format in all cases: in vivo, BALB/c nu/nu mice
[1] = tested on: human lung adenocarcinoma cell line, NCl-H441; test: Tumor growth assay in orthotopic lung model, IVIS bioluminescence; conditions: docetaxel 2.5 mg/kg, from the fourth week
Description: FIGS. 3(A) and (B) show the inhibitory effect of PPE on tumor growth of orthotropic lung tumor-bearing BALB/c nude mice. H441-luc were orthotopically injected into the lung of mice at a concentration of 0.8×10^6 cells/70 μL PBS. PPE treatments (three dosages 25, 50, and […].) twice a week by intraperitoneal injection into tumor-bearing animals over a period of 4 weeks. (A) Representative non-invasive bioluminescence images show tumor progression of mice in orthtopic model. (B) Bar graphs were quantified by Living Image analysis software (n=8-10). Data were analyzed by Student's t-test and are shown as mean±SD*P<0.05 compared with control. § P<0.05 compared with week 4 tumor group;
Male BALB/c nu/nu mice were used in the orthotopic model and divided into five groups, control group (5 mice), tumor group (10 mice), three experimental groups (25-PPE, 50-PPE and 100-PPE) (each group for 10 mice) and docetaxel group (8 mice). […]
The mice were injected with the cell solution of human lung adenocarcinoma cell line, NCl-H441, in matrigel (0.8×10^6 cells/70 μL/mice). […] The tumor growth was monitored by Non Invasion In Vivo Imaging System (IVIS).

[2] = tested on: human lung adenocarcinoma cell line, NCl-H441; test: Survival (Kaplan-Meier) in orthotopic lung tumor-bearing mice; conditions: docetaxel 2.5 mg/kg b.w., orthotopic model
Description: Male BALB/c nu/nu mice were used in the orthotopic model and divided into five groups, control group (5 mice), tumor group (10 mice), three experimental groups (25-PPE, 50-PPE and 100-PPE) (each group for 10 mice) and docetaxel group (8 mice). The mice of the control group and the tumor group were subjected to intraperitoneal injection (i.p.) with vehicle, while 10 mice of each of the experimental groups, 25-PPE group (25 mg/kg of PPE), 50-PPE group (50 mg/kg of PPE) and 100-PPE group (100 mg/kg of PPE), were i.p. administered with 25 mg/kg of PPE, 50 mg/kg of PPE and 100 mg/kg of PPE obtained in Example 1, respectively, and 8 mice of the docetaxel group were administered with 2.5 mg/kg of docetaxel.
The mice were injected with the cell solution of human lung adenocarcinoma cell line, NCl-H441, in matrigel (0.8×10^6 cells/70 μL/mice). Three days after injections, the PPEs at the above-mentioned doses were i.p. administered to the mice twice every two weeks. The tumor growth was monitored by Non Invasion In Vivo Imaging System (IVIS).

[3] = tested on: human lung adenocarcinoma cell line, NCl-H441; test: Computed tomography (CT) lung screening assay in orthotopic model; conditions: docetaxel 2.5 mg/kg, fourth week; tumor group 11.1+/−2.8%
Source text: FIGS. 5(A) and (B) show the inhibitory effects of PPE on analysis of tumor volume in orthotopic model. (A) The micro-CT images and quantitative end-points for lung tumor growth. Longitudinal and transverse micro-CT images of tumor growth in control and treatment of PPE. Each tumor scanned by micro-CT was reconstructed to three-dimensional images (axial, sagittal, and coronal), and diameters measured periodically as indicated. Data represent presence of tumor value in each group. (B) The tissue of lung lesions in nude mice. Representative lung tumor formed in different group. Tumors observed in the lungs are indicated with a yellow arrow;
In the orthotopic model of Example 3, the mice were subjected to CT lung screening to detect the tumor size in lung at the fourth week. The tumor accounts for 11.1+/−2.8% of the lung in the tumor group, 10.1+/−3.9% in the 25-PPE group, 9.3+/−1.4% in the 50-PPE group, 7.5+/−2.3% in the 100-PPE group and 8.0+/−1.1% in the docetaxel group (see FIG. 5).

CC(=O)O[C@@]12CO[C@@H]1C[C@H](O)[C@@]1(C)C(=O)[C@H](O)C3=C(C)[C@@H](OC(=O)[C@H](O)[C@@H](NC(=O)OC(C)(C)C)c4ccccc4)C[C@@](O)([C@@H](OC(=O)c4ccccc4)[C@H]21)C3(C)C [docetaxel]
tumor bioluminescence (IVIS) [1]: 0.5+/−0.07×10^7 photons/sec
lifespan, Kaplan-Meier cumulative survival analysis [2]: significant (p<0.05) increase in lifespan
tumor share of the lung (CT tumor volume ratio) [3]: 8.0+/−1.1%
